# Laboratory results: patent US20240116985A1, “STAPLED PEPTIDES AND METHODS THEREOF” (priority 2020, published 2024)
# Read-outs that look alike come from different tables or passages of the source. Starred links: 1 amine or outer side, 2 acyl side, 3 side chain; linkers in the order of their positions; H or OH if unused. Non-standard residues stand in square brackets, D forms with d. Residues, ends and D or L forms follow the SMILES beside them. X1 = C=CCOC(=O)N1CC[C@@](N[*:1])(C(=O)[*:2])C1; X2 = C=CCCCC(CCCC=C)(N[*:1])C(=O)[*:2]; Bta = N[C@@H](Cc1csc2ccccc12)C(=O)O; αAllylPro = C=CC[C@@]1(C(=O)O)CCCN1; R8 = C=CCCCCCC[C@@](C)(N)C(=O)O; S8 = C=CCCCCCC[C@](C)(N)C(=O)O
# What was measured:
# CHI Log D procedure = type: physicochemical; details: for CHI Log D: pH 7.4; for chromatographic logD / logD: pH 7.4, CHI Log D
# Solubility in PBS = type: physicochemical
# Method in brief: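 The PBS solution was ultracentrifuged and the supernatant analyzed by HPLC. Its peak area was divided by that of a 50 μM peptide DMSO reference injection and multiplied by 50 uM to give solubility.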
SMILES,CHI Log D (CHI Log D procedure),Solubility (Solubility in PBS) [µM],also measured
"CC(=O)N1CCC[C@]12CC=CCCCC1(CCCC=CCCCCCC[C@@](C)(C(=O)N[C@@H](Cc3ccccc3)C(=O)N[C@@H](Cc3csc4ccccc34)C(=O)N[C@@H](CCC(N)=O)C(N)=O)NC(=O)[C@H](CC(N)=O)NC(=O)[C@H](Cc3ccccc3)NC(=O)[C@H](C)NC(=O)[C@H](C)NC(=O)[C@H](CCC(=O)O)NC(=O)[C@H](CNS(C)(=O)=O)NC1=O)NC(=O)[C@H](C)NC(=O)[C@H](CC(=O)O)NC2=O (stereo partly drawn) [I-529, Ac-PL3-Asp-Ala-B5-[MeSO2]Dap-Glu-Ala-Ala-Phe-Asn-S8-Phe-BztA-Gln-NH2]",2.854,50,
"CC(=O)N1CCC[C@]12CC=CCCCC1(CCCC=CCCCCCC[C@@](C)(C(=O)N[C@@H](Cc3ccccc3)C(=O)N[C@@H](Cc3csc4ccccc34)C(=O)N[C@@H](CCC(N)=O)C(N)=O)NC(=O)[C@H](CC(N)=O)NC(=O)[C@H](Cc3ccccc3)NC(=O)[C@H](C)NC(=O)[C@H](C)NC(=O)[C@H](CCC(=O)O)NC(=O)[C@H](CCNS(C)(=O)=O)NC1=O)NC(=O)[C@H](C)NC(=O)[C@H](CC(=O)O)NC2=O (stereo partly drawn) [I-531, Ac-PL3-Asp-Ala-B5-[MeSO2]Dab-Glu-Ala-Ala-Phe-Asn-S8-Phe-BztA-Gln-NH2]",2.794,43,
"CC(=O)N1CCC[C@]12CC=CCCCC1(CCCC=CCCCCCC[C@@](C)(C(=O)N[C@@H](Cc3ccccc3)C(=O)N[C@@H](Cc3csc4ccccc34)C(=O)N[C@@H](CCC(N)=O)C(N)=O)NC(=O)[C@H](CC(N)=O)NC(=O)[C@H](Cc3ccccc3)NC(=O)[C@H](C)NC(=O)[C@H](C)NC(=O)[C@H](CCC(=O)O)NC(=O)[C@H](CCNS(C)(=O)=O)NC1=O)NC(=O)[C@H](C)NC(=O)[C@H](CC(=O)O)NC2=O (stereo partly drawn) [I-532, Ac-PL3-Asp-Ala-B5-[MeSO2]Dab-Glu-Ala-Ala-Phe-Asn-S8-Phe-BztA-Gln-NH2]",2.858,42,
"C=CCCCCCC[C@](C)(NC(=O)[C@H](CCC(N)=O)NC(=O)[C@H](Cc1ccccc1)NC(=O)[C@H](C)NC(=O)[C@H](C)NC(=O)[C@H](CC(=O)O)NC(=O)[C@H](CC(=O)O)NC(=O)C(CCCC=C)(CCCC=C)NC(=O)[C@H](C)NC(=O)[C@H](CC(=O)O)NC(=O)[C@]1(CC=C)CCCN1C(C)=O)C(=O)N[C@@H](Cc1ccccc1)C(=O)N[C@@H](Cc1csc2ccccc12)C(=O)N[C@@H](CCC(N)=O)C(N)=O [I-578, Ac-PL3-Asp-Ala-B5-Asp-Asp-Ala-Ala-Phe-Gln-S8-Phe-BztA-Gln-NH2] (Ac-[αAllylPro]DA[X2]DDAAFQ[S8]F[Bta]Q-NH2)",,50,chromatographic logD (CHI Log D procedure): 2.26
"C=CCCCCCC[C@@](C)(NC(=O)[C@H](C)NC(=O)[C@H](CC(=O)O)NC(=O)[C@H](Cc1ccccc1)NC(C)=O)C(=O)N[C@@H](CC(=O)O)C(=O)N[C@@H](CC(=O)O)C(=O)N[C@@H](C)C(=O)N[C@@H](C)C(=O)N[C@@H](Cc1ccccc1)C(=O)N[C@@H](CCC(N)=O)C(=O)N[C@@]1(C(=O)N[C@@H](Cc2ccccc2)C(=O)N[C@@H](Cc2c[nH]c3ccccc23)C(=O)N[C@@H](CCC(N)=O)C(N)=O)CCN(C(=O)OCC=C)C1 [I-579, Ac-Phe-Asp-Ala-R8-Asp-Asp-Ala-Ala-Phe-Gln-PyrS-Phe-Trp-Gln-NH2] (Ac-FDA[R8]DDAAFQ[X1]FWQ-NH2)",,,chromatographic logD (CHI Log D procedure): 1.51; solubility at 15 min (Solubility in PBS; Solubility (uM)): 45 µM
"CC[C@H](C)[C@@H]1NC(=O)[C@H](CC(=O)O)NC(=O)[C@]2(CC=CCCCC3(CCCC=CCCCCCC[C@@](C)(C(=O)N[C@@H](Cc4ccccc4)C(=O)N[C@@H](Cc4ccccc4)C(=O)N[C@@H](CCC(N)=O)C(N)=O)NC(=O)[C@H](CCC(N)=O)NC(=O)[C@H](Cc4csc5ccccc45)NC(=O)[C@H](C)NC(=O)[C@H](C)NC(=O)[C@H](CCC(=O)O)NC(=O)[C@H](CC(=O)O)NC3=O)NC1=O)CCCN2C(C)=O (stereo partly drawn) [I-585, Ac-PL3-Asp-Ile-B5-Asp-Glu-Ala-Ala-BztA-Gln-S8-Phe-Phe-Gln-NH2]",2.364,50,
"CC[C@H](C)[C@@H]1NC(=O)[C@H](CC(=O)O)NC(=O)[C@]2(CC=CCCCC3(CCCC=CCCCCCC[C@@](C)(C(=O)N[C@@H](CC(=O)O)C(=O)N[C@@H](Cc4csc5ccccc45)C(=O)N[C@@H](CCC(N)=O)C(N)=O)NC(=O)[C@H](CCC(N)=O)NC(=O)[C@H](Cc4ccccc4)NC(=O)[C@H](C)NC(=O)[C@H](C)NC(=O)[C@H](CCC(=O)O)NC(=O)[C@H](Cc4ccccc4)NC3=O)NC1=O)CCCN2C(C)=O (stereo partly drawn) [I-587, Ac-PL3-Asp-Ile-B5-Phe-Glu-Ala-Ala-Phe-Gln-S8-Asp-BztA-Gln-NH2]",,50,chromatographic logD (CHI Log D procedure): 2.15
"CC[C@H](C)[C@@H]1NC(=O)[C@H](Cc2ccccc2)NC(=O)[C@]2(CC=CCCCC3(CCCC=CCCCCCC[C@@](C)(C(=O)N[C@@H](Cc4ccccc4)C(=O)N[C@@H](Cc4csc5ccccc45)C(=O)N[C@@H](CCC(N)=O)C(N)=O)NC(=O)[C@H](CCC(N)=O)NC(=O)[C@H](CC(=O)O)NC(=O)[C@H](C)NC(=O)[C@H](C)NC(=O)[C@H](CCC(=O)O)NC(=O)[C@H](CC(=O)O)NC3=O)NC1=O)CCCN2C(C)=O (stereo partly drawn) [I-588, Ac-PL3-Phe-Ile-B5-Asp-Glu-Ala-Ala-Asp-Gln-S8-Phe-BztA-Gln-NH2]",,,chromatographic logD (CHI Log D procedure): 2.87; solubility at 15 min (Solubility in PBS; Solubility (uM)): 49 µM
"CC(=O)N1CCC[C@]12CC=CCCCC1(CCCC=CCCCCCC[C@@](C)(C(=O)N[C@@H](Cc3ccccc3)C(=O)N[C@@H](Cc3csc4ccccc34)C(N)=O)NC(=O)[C@H](CC(N)=O)NC(=O)[C@H](Cc3ccccc3)NC(=O)[C@H](C)NC(=O)[C@H](C)NC(=O)[C@H](CCC(=O)O)NC(=O)[C@H](CC(=O)O)NC1=O)NC(=O)[C@H](CC1CCCCC1)NC(=O)[C@H](CC(=O)O)NC2=O (stereo partly drawn) [I-626, Ac-PL3-Asp-Cha-B5-Asp-Glu-Ala-Ala-Phe-Asn-S8-Phe-BztA-NH2]",2.048,50,
"CC(=O)N1CCC[C@]12CC=CCCCC1(CCCC=CCCCOC(=O)N3CC[C@@](C(=O)N[C@@H](Cc4ccsc4)C(=O)N[C@@H](Cc4csc5ccccc45)C(=O)N[C@@H](Cc4c[nH]cn4)C(N)=O)(C3)NC(=O)[C@H](CC(N)=O)NC(=O)[C@H](Cc3ccccc3)NC(=O)[C@H](C)NC(=O)[C@H](CCCCNC(=O)Cn3cc(CNC(=O)c4ccc5c(c4)C4(OC5=O)c5ccc(O)cc5Oc5cc(O)ccc54)nn3)NC(=O)[C@H](CC(=O)O)NC(=O)[C@H](CC(=O)O)NC1=O)NC(=O)[C@H](CC(C)(C)C)NC(=O)[C@H](CC(=O)O)NC2=O (stereo partly drawn) [I-865, Ac-PL3-Asp-Npg-B5-Asp-Asp-[FAM6Ppg][1TriAc]Lys-Ala-Phe-Asn-PyrS2-3Thi-BztA-His-NH2]",,,logD (CHI Log D procedure): 1.62; Solubility (Solubility in PBS; Solubility (uM)): 38 µM
"CC(=O)N1CCC[C@]12CC=CCCCC1(CCCC=CCCCOC(=O)N3CC[C@@](C(=O)N[C@@H](Cc4ccsc4)C(=O)N[C@@H](Cc4csc5ccccc45)C(=O)N[C@@H](CCC(N)=O)C(N)=O)(C3)NC(=O)[C@H](CC(N)=O)NC(=O)[C@H](Cc3ccccc3)NC(=O)[C@H](C)NC(=O)[C@H](CCCCNC(=O)c3ccc(-n4cc(CNC(=O)c5ccc6c(c5)C5(OC6=O)c6ccc(O)cc6Oc6cc(O)ccc65)nn4)cc3)NC(=O)[C@H](CC(C)C)NC(=O)[C@H](CC(=O)O)NC1=O)NC(=O)[C@H](CC(C)(C)C)NC(=O)[C@H](CC(=O)O)NC2=O (stereo partly drawn) [I-867, Ac-PL3-Asp-Npg-B5-Asp-Leu-[FAM6Ppg][p1TB]Lys-Ala-Phe-Asn-PyrS2-3Thi-BztA-Gln-NH2]",,,logD (CHI Log D procedure): 1.8; Solubility (Solubility in PBS; Solubility (uM)): 13 µM

# Further lines, with some results ahead:
CHI Log D (CHI Log D procedure),Solubility (Solubility in PBS) [µM],SMILES,also measured
2.935,50,"CC(=O)N1CCC[C@]12CC=CCCCC1(CCCC=CCCCCCC[C@@](C)(C(=O)N[C@@H](Cc3ccccc3)C(=O)N[C@@H](Cc3csc4ccccc34)C(=O)N[C@@H](CCC(N)=O)C(N)=O)NC(=O)[C@H](CC(N)=O)NC(=O)[C@H](Cc3ccccc3)NC(=O)[C@H](C)NC(=O)[C@H](C)NC(=O)[C@H](CCC(=O)O)NC(=O)[C@H](CNS(C)(=O)=O)NC1=O)NC(=O)[C@H](C)NC(=O)[C@H](CC(=O)O)NC2=O (stereo partly drawn) [I-530, Ac-PL3-Asp-Ala-B5-[MeSO2]Dap-Glu-Ala-Ala-Phe-Asn-S8-Phe-BztA-Gln-NH2]",
2.39,50,"CC[C@H](C)[C@@H]1NC(=O)[C@H](CC(=O)O)NC(=O)[C@]2(CC=CCCCC3(CCCC=CCCCCCC[C@@](C)(C(=O)N[C@@H](Cc4ccccc4)C(=O)N[C@@H](Cc4ccccc4)C(=O)N[C@@H](CCC(N)=O)C(N)=O)NC(=O)[C@H](CCC(N)=O)NC(=O)[C@H](Cc4csc5ccccc45)NC(=O)[C@H](C)NC(=O)[C@H](C)NC(=O)[C@H](CCC(=O)O)NC(=O)[C@H](CC(=O)O)NC3=O)NC1=O)CCCN2C(C)=O (stereo partly drawn) [I-586, Ac-PL3-Asp-Ile-B5-Asp-Glu-Ala-Ala-BztA-Gln-S8-Phe-Phe-Gln-NH2]",
2.554,50,"CC[C@H](C)[C@@H]1NC(=O)[C@H](CC(=O)O)NC(=O)[C@]2(CC=CCCCC3(CCCC=CCCCCCC[C@@](C)(C(=O)N[C@@H](Cc4ccccc4)C(=O)N[C@@H](Cc4csc5ccccc45)C(=O)N4CCC[C@H]4C(N)=O)NC(=O)[C@H](CCC(N)=O)NC(=O)[C@H](Cc4ccccc4)NC(=O)[C@H](C)NC(=O)[C@H](C)NC(=O)[C@H](CCC(=O)O)NC(=O)[C@H](CC(=O)O)NC3=O)NC1=O)CCCN2C(C)=O (stereo partly drawn) [I-637, Ac-PL3-Asp-Ile-B5-Asp-Glu-Ala-Ala-Phe-Gln-S8-Phe-BztA-Pro-NH2]",
,10,"CC(=O)N1CCC[C@]12CC=CCCCC1(CCCC=CCCCOC(=O)N3CC[C@@](C(=O)N[C@@H](Cc4ccsc4)C(=O)N[C@@H](Cc4csc5ccccc45)C(=O)N[C@@H](CCC(N)=O)C(N)=O)(C3)NC(=O)[C@H](CC(C)C)NC(=O)[C@H](Cc3ccccc3)NC(=O)[C@H](C)NC(=O)[C@H](CCCCNC(=O)c3ccc(-n4cc(CNC(=O)c5ccc6c(c5)C5(OC6=O)c6ccc(O)cc6Oc6cc(O)ccc65)nn4)cc3)NC(=O)[C@H](CC(C)C)NC(=O)[C@H](CC(=O)O)NC1=O)NC(=O)[C@H](CC(C)(C)C)NC(=O)[C@H](CC(=O)O)NC2=O (stereo partly drawn) [I-868, Ac-PL3-Asp-Npg-B5-Asp-Leu-[FAM6Ppg][p1TB]Lys-Ala-Phe-Leu-PyrS2-3Thi-BztA-Gln-NH2]",logD (CHI Log D procedure): 1.88
